According to ChEMBL document CHEMBL1201862, “PubChem BioAssay data set” (2004):
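Tested at 5 concentrations; 48 h exposure; 96-well plates; endpoints linearly interpolated, else capped at highest concentration. The concentration for 50% growth inhibition is given as GI50.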 The source made the active and inactive calls. Cut-off read from the data, not from the text of the source: active = GI50 up to about 1.1 µM and inactive = higher.

Legend:
Test in all cases: NCI tumour cell line growth inhibition, 48 h
[1] = system: KM12
[2] = system: SNB-78
[3] = system: UACC-257
[4] = system: COLO 205
[5] = system: HOP-92
[6] = system: HT-29
[7] = system: KM-20L2
[8] = system: K562
[9] = system: A498
[10] = system: A549
[11] = system: NCI-H522
[12] = system: Malme-3M
[13] = system: SK-MEL-2
[14] = system: EKVX
[15] = system: HOP-18
[16] = system: UACC-62
[17] = system: SK-MEL-28
[18] = system: HCT-116
[19] = system: SF-539
[20] = system: LOX IMVI
[21] = system: HL-60
[22] = system: SF-268
[23] = system: SNB-75
[24] = system: CCRF-CEM
[25] = system: U-251
[26] = system: HCC 2998
[27] = system: SNB-19
[28] = system: MCF7
[29] = system: HCT-15
[30] = system: MOLT-4
[31] = system: OVCAR-4
[32] = system: M19-MEL
[33] = system: HOP-62
[34] = system: SF-295
[35] = system: NCI-H460
[36] = system: NCI-H226
[37] = system: SN12C
[38] = system: SK-OV-3
[39] = system: OVCAR-8
[40] = system: SW-620
[41] = system: RXF 393
[42] = system: CAKI-1
[43] = system: NCI-H23
[44] = system: RPMI-8226
[45] = system: DMS-114
[46] = system: OVCAR-3
[47] = system: UO-31
[48] = system: SK-MEL-5
[49] = system: NCI/ADR-RES
[50] = system: DLD-1
[51] = system: IGROV-1
[52] = system: DMS-273
[53] = system: OVCAR-5
[54] = system: T47D
[55] = system: M14
[56] = system: 786-0
[57] = system: ACHN
[58] = system: Hs-578T
[59] = system: TK-10
[60] = system: MDA-N
[61] = system: PC-3
[62] = system: MDA-MB-435
[63] = system: LXFL 529
[64] = system: SR
[65] = system: DU-145
[66] = system: MDA-MB-231
[67] = system: BT-549

Measured: GI50

CCCC(=O)OCC1OC(n2ccc(N)nc2=O)C(OC(=O)CCC)C1OC(=O)CCC (configuration not stated)
active: [15] 1 µM | [24] 0.203 µM | [30] 0.33 µM | [33] 0.0957 µM
inactive: [1] > 100 µM | [2] > 100 µM | [3] > 31.7 µM | [4] > 100 µM | [5] > 45.1 µM | [6] 99.3 µM | [7] 11.4 µM | [8] > 100 µM | [9] 5.77 µM | [10] 8.05 µM | [11] 10.6 µM | [12] > 21.2 µM | [13] > 85.9 µM | [14] 2.25 µM | [16] 26.4 µM | [17] 15.1 µM | [18] 33.3 µM | [19] 77.3 µM | [20] 3.03 µM | [21] 1.67 µM | [22] > 42.4 µM | [23] > 48.9 µM | [25] 35 µM | [26] > 100 µM | [27] 24.8 µM | [28] 8.09 µM | [31] > 100 µM | [32] 43.2 µM | [34] > 73.5 µM | [35] 2.74 µM | [36] 88.5 µM | [37] 16.5 µM | [38] > 100 µM | [39] 6.1 µM | [40] > 100 µM | [41] > 58.7 µM | [42] 5.25 µM | [43] 5.01 µM | [44] > 100 µM | [45] > 100 µM | [46] > 100 µM | [47] 21.6 µM | [48] > 86.5 µM | [49] 68.9 µM | [50] > 100 µM | [51] > 63 µM | [52] 36.7 µM | [53] 15.5 µM
72.4 µM: [29]

Nc1ccn(C2C=C(CO)C(O)C2O)c(=O)c1 (configuration not stated)
inactive: [1] > 625 µM | [2] > 625 µM | [4] > 625 µM | [5] > 625 µM | [6] > 625 µM | [7] > 625 µM | [10] > 625 µM | [13] > 625 µM | [15] > 625 µM | [16] > 625 µM | [18] > 625 µM | [19] > 625 µM | [20] > 625 µM | [21] > 625 µM | [22] > 625 µM | [23] > 625 µM | [26] > 625 µM | [27] > 625 µM | [28] > 625 µM | [31] > 625 µM | [32] > 625 µM | [33] > 625 µM | [34] > 625 µM | [35] > 625 µM | [36] > 625 µM | [37] > 625 µM | [38] > 625 µM | [39] > 625 µM | [40] > 625 µM | [42] > 625 µM | [44] > 625 µM | [45] > 625 µM | [46] > 625 µM | [47] > 625 µM | [48] > 625 µM | [49] > 625 µM | [50] > 62.5 µM | [51] > 625 µM | [52] > 625 µM
> 625 µM: [29]

CC(=O)Nc1ccc(C(=O)NN2C(=O)C(Cl)C2c2cc(Br)ccc2O)cc1 (configuration not stated)
inactive: [1] 3.44 µM | [3] 3.93 µM | [4] 36.1 µM | [5] 15.2 µM | [6] 9.46 µM | [8] 6.41 µM | [10] 5.46 µM | [11] 6.55 µM | [12] 5.55 µM | [13] 4.86 µM | [14] 28.8 µM | [54] 4.16 µM | [15] 4.41 µM | [16] 3.85 µM | [17] 4.38 µM | [18] 3.69 µM | [19] 4.19 µM | [55] 4.54 µM | [56] 3.54 µM | [21] 2.71 µM | [22] 1.91 µM | [23] 44.4 µM | [24] 1.85 µM | [25] 2.59 µM | [26] 11.2 µM | [27] 7.62 µM | [57] 2.99 µM | [28] 3.84 µM | [58] 66.1 µM | [59] 36.1 µM | [30] 3.37 µM | [60] 9.16 µM | [31] 3.76 µM | [32] 4.12 µM | [33] 2.2 µM | [34] 3.66 µM | [61] 3.88 µM | [35] 3.09 µM | [36] 7.36 µM | [37] 8.71 µM | [38] 4.42 µM | [62] 7.69 µM | [39] 6.52 µM | [63] 14.4 µM | [40] 6.21 µM | [64] 3.45 µM | [43] 5.75 µM | [44] 12.1 µM | [65] 6.14 µM | [46] 4.11 µM | [47] 3.72 µM | [48] 5.04 µM | [49] 3.65 µM | [50] 4.74 µM | [51] 17.6 µM | [66] 3.6 µM | [67] 14.8 µM | [53] 19.2 µM
2.14 µM: [29]
